Structures can show the parent of a compound that is named as a salt.
These molecules were tested against T1, Nav1.7 (or SCN9A) channel; HEK cells stably transfected with hSCN9A (Homo sapiens, UniProt Q15858) (assay: Nav1.7 block, PatchXpress 7000 automated whole-cell voltage clamp, estimated IC50 (EIC50)). Conditions: PatchXpress platform; hSCN9A HEK cells held at V1/2 of inactivation; estimated IC50.
T1 construct: expressed in transfected cells
T1 sequence (Q15858 whole entry): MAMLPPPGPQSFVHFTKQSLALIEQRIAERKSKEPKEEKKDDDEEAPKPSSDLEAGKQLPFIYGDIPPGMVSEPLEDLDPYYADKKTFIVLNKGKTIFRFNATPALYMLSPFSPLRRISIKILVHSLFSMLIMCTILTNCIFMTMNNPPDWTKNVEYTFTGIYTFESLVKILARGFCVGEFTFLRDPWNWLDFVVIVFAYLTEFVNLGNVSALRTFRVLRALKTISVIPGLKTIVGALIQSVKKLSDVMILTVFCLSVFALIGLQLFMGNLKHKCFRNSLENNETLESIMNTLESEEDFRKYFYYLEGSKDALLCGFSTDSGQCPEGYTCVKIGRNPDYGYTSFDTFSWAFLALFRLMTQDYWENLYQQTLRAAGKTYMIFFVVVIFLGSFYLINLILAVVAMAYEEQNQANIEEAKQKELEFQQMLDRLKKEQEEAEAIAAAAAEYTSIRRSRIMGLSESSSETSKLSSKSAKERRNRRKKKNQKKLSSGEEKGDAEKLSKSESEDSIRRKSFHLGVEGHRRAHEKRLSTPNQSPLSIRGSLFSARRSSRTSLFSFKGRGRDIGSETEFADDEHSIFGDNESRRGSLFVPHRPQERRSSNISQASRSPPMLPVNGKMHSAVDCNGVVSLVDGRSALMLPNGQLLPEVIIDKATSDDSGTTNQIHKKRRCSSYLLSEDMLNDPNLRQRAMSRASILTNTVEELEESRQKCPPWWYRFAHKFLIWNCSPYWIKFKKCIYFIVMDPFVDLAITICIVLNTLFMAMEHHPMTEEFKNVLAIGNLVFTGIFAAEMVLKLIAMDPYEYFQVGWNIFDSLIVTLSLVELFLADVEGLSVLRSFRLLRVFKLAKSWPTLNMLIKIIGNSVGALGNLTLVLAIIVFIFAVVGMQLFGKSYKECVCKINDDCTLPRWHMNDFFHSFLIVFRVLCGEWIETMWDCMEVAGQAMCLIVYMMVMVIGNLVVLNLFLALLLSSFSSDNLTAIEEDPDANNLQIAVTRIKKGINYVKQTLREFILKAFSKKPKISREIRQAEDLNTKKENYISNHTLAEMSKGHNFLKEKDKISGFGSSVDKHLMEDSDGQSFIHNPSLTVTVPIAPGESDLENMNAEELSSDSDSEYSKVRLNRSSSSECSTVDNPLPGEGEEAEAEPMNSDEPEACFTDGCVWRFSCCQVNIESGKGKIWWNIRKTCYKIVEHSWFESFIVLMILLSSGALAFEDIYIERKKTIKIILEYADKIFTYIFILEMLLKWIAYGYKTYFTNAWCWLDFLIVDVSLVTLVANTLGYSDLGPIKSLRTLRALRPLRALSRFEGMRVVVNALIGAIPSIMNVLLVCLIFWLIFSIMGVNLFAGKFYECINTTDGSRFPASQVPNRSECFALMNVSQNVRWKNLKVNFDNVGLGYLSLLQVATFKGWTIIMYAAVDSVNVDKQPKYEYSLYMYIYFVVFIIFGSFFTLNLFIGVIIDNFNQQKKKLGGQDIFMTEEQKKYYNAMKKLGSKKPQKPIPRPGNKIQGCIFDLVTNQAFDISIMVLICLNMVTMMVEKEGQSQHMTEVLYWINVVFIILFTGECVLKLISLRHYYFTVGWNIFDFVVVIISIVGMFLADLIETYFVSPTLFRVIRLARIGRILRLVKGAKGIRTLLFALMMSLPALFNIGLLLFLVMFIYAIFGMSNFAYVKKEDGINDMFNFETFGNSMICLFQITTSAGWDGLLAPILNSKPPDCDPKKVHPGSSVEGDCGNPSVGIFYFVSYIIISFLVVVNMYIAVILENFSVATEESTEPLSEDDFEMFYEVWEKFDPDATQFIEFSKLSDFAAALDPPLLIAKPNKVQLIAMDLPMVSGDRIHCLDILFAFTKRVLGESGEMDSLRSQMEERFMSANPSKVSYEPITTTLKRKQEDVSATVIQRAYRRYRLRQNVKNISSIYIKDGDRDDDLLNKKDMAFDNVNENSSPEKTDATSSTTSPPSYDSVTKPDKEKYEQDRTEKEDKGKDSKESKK
Type: cell-based
An IC50 of 30 nM was found for `O=S(=O)(Nc1nccs1)c1ccc(Oc2ccc(Cl)cc2-c2ccnn2-c2ccccc2)c(F)c1` [Example 227, 4-(4-chloro-2-(1-phenyl-1H-pyrazol-5-yl)phenoxy)-3-fluoro-N-(thiazol-2-yl)benzenesulfonamide] in this work. An IC50 of 700 nM was found for `Cc1cnsc1-c1ccccc1Oc1ccc(S(=O)(=O)Nc2nccs2)cc1F` [Example 129, 3-fluoro-4-[2-(4-methylisothiazol-5-yl)phenoxy]-N-1,3-thiazol-2-ylbenzenesulfonamide] in this work. An IC50 of 9420 nM was found for `N#Cc1cc(S(=O)(=O)Nc2nccs2)ccc1Oc1cc(-c2ccccc2F)nn1CC(F)(F)F` [Example 188, 3-cyano-4-[5-(2-fluoro-phenyl)-2-(2,2,2-trifluoro-ethyl)-2H-pyrazol-3-yloxy]-N-thiazol-2-yl-benzenesulfonamide] in this work. An IC50 of 2950 nM was found for `O=S(=O)(Nc1nccs1)c1ccc(Oc2ccc(-c3ccccc3)cc2)c(F)c1` [Example 247, 4-(biphenyl-4-yloxy)-3-fluoro-N-thiazol-2-yl-benzenesulfonamide] in this work. An IC50 of 2050 nM was found for `N#Cc1cc(S(=O)(=O)Nc2nccs2)ccc1Oc1cc(C2CC2)nn1C1CCCCC1` [Example 192, 3-Cyano-4-(2-cyclohexyl-5-cyclopropyl-2H-pyrazol-3-yloxy)-N-thiazol-2-yl-benzenesulfonamide] in this work. An IC50 of 2800 nM was found for `N#Cc1cc(S(=O)(=O)Nc2nccs2)ccc1Oc1cc(-c2ccc(Cl)cc2)nn1CC(F)(F)F` [Example 189, 4-[5-(4-chloro-phenyl)-2-(2,2,2-trifluoro-ethyl)-2H-pyrazol-3-yloxy]-3-cyano-N-thiazol-2-yl-benzenesulfonamide] in this work. An IC50 of 80 nM was found for `Cc1nccn1-c1cc(Cl)ccc1Oc1ccc(S(=O)(=O)Nc2nccs2)cc1C#N` [Example 159, 4-[4-chloro-2-(2-methyl-1H-imidazol-1-yl)phenoxy]-3-cyano-N-1,3-thiazol-2-ylbenzenesulfonamide] in this work. An IC50 of 17300 nM was found for `CCc1nnc(C)n1-c1ccc(Oc2ccc(S(=O)(=O)Nc3nccs3)cc2F)cc1` [Example 132, 4-[4-(3-ethyl-5-methyl-4H-1,2,4-triazol-4-yl)phenoxy]-3-fluoro-N-1,3-thiazol-2-ylbenzenesulfonamide] in this work. An IC50 of 910 nM was found for `Cn1ccc(-c2cc(Cl)ccc2Oc2ccc(S(=O)(=O)Nc3nccs3)cc2F)n1` [Example 216, 4-(4-chloro-2-(1-methyl-1H-pyrazol-3-yl)phenoxy)-3-fluoro-N-(thiazol-2-yl)benzenesulfonamide] in this work. An IC50 of 100 nM was found for `Cn1nccc1-c1ccccc1Oc1ccc(S(=O)(=O)Nc2nccs2)cc1F` [Example 3, 3-fluoro-4-(2-(1-methyl-1H-pyrazol-5-yl)phenoxy)-N-(thiazol-2-yl)benzenesulfonamide] in this work. An IC50 of 12700 nM was found for `Cc1cccc(-c2ccc(F)cc2F)c1Oc1ccc(S(=O)(=O)Nc2ncns2)cc1C#N` [Example 35, 3-cyano-4-[(2′,4′-difluoro-3-methylbiphenyl-2-yl)oxy]-N-1,2,4-thiadiazol-5-ylbenzenesulfonamide] in this work.

Same assay, conditions: estimated IC50; hSCN9A HEK cells, PatchXpress platform; Examples 283-814
An IC50 of 2300 nM was found for `N#Cc1cc(S(=O)(=O)Nc2cscn2)ccc1Oc1ccc(Cl)c(Cn2ccnc2)c1` [Example 418, 4-[4-chloro-3-(1H-imidazol-1-ylmethyl)phenoxy]-3-cyano-N-1,3-thiazol-4-ylbenzenesulfonamide] in this work. An IC50 of 78 nM was found for `O=S(=O)(Nc1ccncn1)c1cc(Cl)c(Oc2ccc(Cl)cc2C2CCNCC2)cc1F` [Example 560, 5-chloro-4-(4-chloro-2-piperidin-4-ylphenoxy)-2-fluoro-N-pyrimidin-4-ylbenzenesulfonamide] in this work. An IC50 of 1300 nM was found for `Cn1nccc1-c1cc(Cl)ccc1Oc1ccc(S(=O)(=O)Nc2ccccn2)cc1C#N` [Example 442, 4-[4-chloro-2-(1-methyl-1H-pyrazol-5-yl)phenoxy]-3-cyano-N-pyridin-2-ylbenzenesulfonamide] in this work. With `N#Cc1cc(S(=O)(=O)Nc2ncns2)ccc1Oc1ccc(-n2cc(COC(=O)C(F)(F)F)cn2)cc1` [Example 287, [1-(4-{2-cyano-4-[(1,2,4-thiadiazol-5-ylamino)sulfonyl]phenoxy}phenyl)-1H-pyrazol-4-yl]methyl trifluoroacetate] the IC50 was >1000 nM. An IC50 of 280 nM was found for `N#Cc1cncc(-c2cc(C(F)(F)F)ccc2Oc2cc(F)c(S(=O)(=O)Nc3ncns3)cc2Cl)c1` [Example 616, 5-chloro-4-[2-(5-cyanopyridin-3-yl)-4-(trifluoromethyl)phenoxy]-2-fluoro-N-1,2,4-thiadiazol-5-ylbenzenesulfonamide] in this work. An IC50 of 170 nM was found for `CC(C)(C)n1nccc1-c1cc(F)ccc1Oc1ccc(S(=O)(=O)Nc2ncns2)cc1Cl` [Example 476, 4-[2-(1-tert-butyl-1H-pyrazol-5-yl)-4-fluorophenoxy]-3-chloro-N-1,2,4-thiadiazol-5-ylbenzenesulfonamide] in this work. An IC50 of 3100 nM was found for `Cn1nccc1-c1cc(Cl)ccc1Oc1ccc(S(=O)(=O)Nc2ncc(F)cc2F)cc1F` [Example 667, 4-[4-chloro-2-(1-methyl-1H-pyrazol-5-yl)phenoxy]-N-(3,5-difluoropyridin-2-yl)-3-fluorobenzenesulfonamide] in this work. An IC50 of 32 nM was found for `Cn1nc(C(F)(F)F)cc1-c1ccc(Oc2ccc(S(=O)(=O)Nc3nccs3)cc2C#N)c(Cl)c1` [Example 335, 4-{2-chloro-4-[1-methyl-3-(trifluoromethyl)-1H-pyrazol-5-yl]phenoxy}-3-cyano-N-1,3-thiazol-2-ylbenzenesulfonamide] in this work. An IC50 of 260 nM was found for `N#Cc1cc(S(=O)(=O)Nc2ncns2)ccc1Oc1ccc(C(F)(F)F)cc1-c1cnccn1` [Example 671, 3-cyano-4-[2-pyrazin-2-yl-4-(trifluoromethyl)phenoxy]-N-1,2,4-thiadiazol-5-ylbenzenesulfonamide] in this work. With `Cn1cc(-c2ccc(Oc3ccc(S(=O)(=O)Nc4nccs4)cc3C#N)cc2)c(N)n1` [Example 483, 4-[4-(3-amino-1-methyl-1H-pyrazol-4-yl)phenoxy]-3-cyano-N-1,3-thiazol-2-ylbenzenesulfonamide] the IC50 was >1000 nM. An IC50 of 34000 nM was found for `CCn1nc(C(F)(F)F)cc1-c1ccc(Oc2ccc(S(=O)(=O)Nc3ccc(C(F)(F)F)cn3)cc2C#N)cc1` [Example 340, 3-cyano-4-{4-[1-ethyl-3-(trifluoromethyl)-1H-pyrazol-5-yl]phenoxy}-N-[5-(trifluoromethyl)pyridin-2-yl]benzenesulfonamide] in this work.

Same assay, conditions: estimated IC50; hSCN9A HEK cells, PatchXpress platform; Examples 815-1040
An IC50 of 19 nM was found for `Nc1cc(-c2cc(Cl)ccc2Oc2cc(F)c(S(=O)(=O)Nc3cscn3)cc2F)ccn1` [Example 1020, 4-[2-(2-aminopyridin-4-yl)-4-dchlorophenoxy]-2,5-ifluoro-N-1,3-thiazol-4-ylbenzenesulfonamide] in this work. An IC50 of 8.5 nM was found for `N#Cc1cc(S(=O)(=O)Nc2ncns2)ccc1Oc1cc(Cl)c(Cl)cc1-c1ccnnc1` [Example 971, 3-cyano-4-(4,5-dichloro-2-pyridazin-4-ylphenoxy)-N-1,2,4-thiadiazol-5-ylbenzenesulfonamide] in this work. An IC50 of 180 nM was found for `Cc1cnncc1-c1cc(Cl)ccc1Oc1ccc(S(=O)(=O)Nc2ncns2)cc1C#N` [Example 914, 4-[4-chloro-2-(5-methylpyridazin-4-yl)phenoxy]-3-cyano-N-1,2,4-thiadiazol-5-ylbenzenesulfonamide] in this work. An IC50 of 120 nM was found for `Nc1nccc(-c2cc(Cl)ccc2Oc2cc(F)c(S(=O)(=O)Nc3ncns3)cc2F)n1` [Example 849, 4-[2-(2-aminopyrimidin-4-yl)-4-chlorophenoxy]-2,5-difluoro-N-1,2,4-thiadiazol-5-ylbenzenesulfonamide] in this work.

Reference: patent US8541588B2, “Sulfonamide derivatives” (Pfizer Limited, priority 2009, dated 2013)
